# Laboratory results reported in ChEMBL document CHEMBL3045935, “Benzoxepin derivatives: design, synthesis, and pharmacological evaluation with sedativehypnotic effect” (2012).
# How the values were obtained:
# [1] = system: Mus musculus; experiment: Sedative-hypnotic activity in Mus musculus (mouse) assessed as decrease in onset of phenobarbital-induced sleep at 19.6 to 42.6 mg/kg, ip incubated for 30 min prior to phenobarbital challenge relative to phenobarbital-treated mouse; type: functional; conditions: dose mg/kg 19.6-42.6; route intraperitoneal
# [2] = system: Mus musculus; experiment: Sedative-hypnotic activity in Mus musculus (mouse) assessed as increase in duration of phenobarbital-induced sleep at 19.6 to 42.6 mg/kg, ip incubated for 30 min prior to phenobarbital challenge relative to phenobarbital-treated mouse; type: functional; conditions: dose mg/kg 19.6-42.6; route intraperitoneal
Compound,Time [1] [min],Time [2] [min]
O=C1CCCOc2ccc(Cl)cc21,34.5,59.5
CN(C)CC1CCOc2ccc(Cl)cc2C1=O (configuration not stated),34,61.3
O=C1c2cc(Cl)ccc2OCCC1CN1CCCCC1 (configuration not stated),24.5,99.3
CN1CCN(CC2CCOc3ccc(Cl)cc3C2=O)CC1 (configuration not stated),38.8,92.35
O=C1c2cc(Cl)ccc2OCCC1CN1CCN(c2ccccc2Cl)CC1 (configuration not stated),45.5,45.25
O=C1c2cc(Cl)ccc2OCCC1CN1CCOCC1 (configuration not stated),40.8,75.25
O=C1/C(=C\c2ccccc2)CCOc2ccc(Cl)cc21,18,84.3
O=C1/C(=C\c2ccc(F)cc2)CCOc2ccc(Cl)cc21,16.5,103.15
O=C1/C(=C\c2ccc(Cl)cc2)CCOc2ccc(Cl)cc21,15,105.5
COc1ccc(/C=C2/CCOc3ccc(Cl)cc3C2=O)cc1,17.6,79.4
O=C1c2cc(Cl)ccc2OCCC1Br (configuration not stated),47,39.15
CCC1(c2ccccc2)C(=O)NC(=O)N(C2CCOc3ccc(Cl)cc3C2=O)C1=O (configuration not stated),21.5,123.25
O=C1CC2CCOc3ccc(Cl)cc3C2=NN1c1ccccc1 (configuration not stated),20,100.15
O=C1CC2CCOc3ccc(Cl)cc3C2=NN1c1ccc(Cl)cc1 (configuration not stated),49.5,42.15
COc1ccc(N2N=C3c4cc(Cl)ccc4OCCC3CC2=O)cc1 (configuration not stated),42.5,38.45
CCC1(c2ccccc2)C(=O)NC(=O)NC1=O [PHENOBARBITAL],46.8,100.5
